Test results published in patent US20220193103A1, “NANO-PUERARIN REGULATES TUMOR MICROENVIRONMENT AND FACILITATES CHEMO- AND IMMUNOTHERAPY IN MURINE TRIPLE NEGATIVE BREAST CANCER MODEL” (The University of North Carolina at Chapel Hill, priority 2019, published 2022).

How the values were obtained:
NIH3T3 cells = format: cell-based, mouse; conditions: different concentrations, within 48 hours
Method: 1.4.4. Cytotoxicity of Puerarin. The addition of puerarin and nanoPue to NIH3T3 cells was the same as the ROS assay. After 48 h of incubation, the culture medium was discarded and the cell layers were washed twice with PBS. Then 100 μL culture medium and 10 μL MTT solution (5 mg/mL) were added and incubated for 4 h at 37° C. After the supernatant was removed, 150 μL DMSO was added and OD value was determined at 492 nm by using a multidetection microplate reader (Plate CHAMELEONTM V-Hidex). The cell viability rate of each concentration was calculated according to formula (1).
Cell viability %=(ODdosing group/ODcontrol group)×100% (1)

[1] = test system: TGF-β activated NIH3T3 cells; assay: ROS inhibition in TGF-β activated NIH3T3 cells (Fluorometric Hydrogen Peroxide Assay Kit); format: cell-based, mouse
Method: Based on literature and Chinese medicine pharmacology, 10 anti-fibrosis TCMs were selected to screen the ROS inhibition effects on TGF-β activated NIH3T3 cells. NIH3T3 cells were pre-stimulated with 10 ng/mL TGF-β for 24 h and 2×10^3 cells/well were seeded in a 96-well black plate. Then, the cells were treated with different TCMs. After these drugs were added, the cells were further cultured for 48 h. Then the concentration of ROS was determined with the Fluorometric Hydrogen Peroxide Assay Kit according to the manufacturer's instructions. The fluorescence intensity measured by using a fluorescence microplate reader (FLx800, Biotek Instrument Inc., Winooski, VT, USA) at excitation and emission wavelengths of 485 and 530 nm, respectively.

[2] = literature statement; cited from earlier work

Puerarin
cytotoxicity in NIH3T3 cells (cell viability, MTT) (NIH3T3 cells): no cytotoxicity | ROS inhibition activity at different concentrations ([1]; TGF-β activated NIH3T3 cells, different concentrations): concentration-dependent ROS downregulation pattern | amount of ROS in TGF-β activated NIH3T3 cells ([1]; screen of ten natural compounds, 15 μg/mL, 48 h, compared with other natural compounds): significantly reduced | solubility [2]: poorly soluble
